Laboratory results from ChEMBL document CHEMBL4130489, “Triclosan-caffeic acid hybrids: Synthesis, leishmanicidal, trypanocidal and cytotoxic activities” (Eur J Med Chem, 2017).
pEC50, pIC50: −log10 of the molar value. Values after ≈ are worked out from the molar mass of the structure shown.

Columns and labels:
[1] = Selectivity index, ratio of LC50 for cytotoxicity in human U937 cells to EC50 for antitrypanosomal activity against Trypanosoma cruzi Tulahuen intracellular amastigotes transfected with beta-galactosidase infected in human U937 cells; assay type: toxicity, cell-based
Trypanosoma cruzi [2] = test: Antitrypanosomal activity against Trypanosoma cruzi Tulahuen intracellular amastigotes transfected with beta-galactosidase infected in human U937 cells incubated for 72 hrs by spectrophotometry; assay type: functional, organism-based; details: U-937, 72 h
[3] = Cytotoxicity in human U937 cells assessed as reduction in cell viability incubated for 72 hrs by MTT assay; assay type: cell-based, U-937; details: read-out: LC50
[4] = Selectivity index, ratio of LC50 for cytotoxicity in human U937 cells to EC50 for antileishmanial activity against GFP-tagged Leishmania panamensis MHOM/CO/87/UA140 intracellular amastigotes infected in human U937 cells; assay type: toxicity, cell-based
Leishmania panamensis [5] = test: Antileishmanial activity against GFP-tagged Leishmania panamensis MHOM/CO/87/UA140 intracellular amastigotes infected in human U937 cells incubated for 72 hrs by flow cytometry; assay type: functional, organism-based; details: MHOM/CO/87/UA140, U-937, 72 h
Leishmania panamensis [6] = test: Antileishmanial activity against GFP-tagged Leishmania panamensis MHOM/CO/87/UA140 amastigotes infected in human U937 cells incubated for 72 hrs by flow cytometry; assay type: functional, organism-based; details: MHOM/CO/87/UA140, U-937, 72 h
[7] = Cytotoxicity in human U937 cells; assay type: cell-based, U-937; details: read-out: LC50 (the source's name)
Trypanosoma brucei = test: Antitrypanosomal activity against Trypanosoma brucei bloodstream forms; assay type: functional
Trypanosoma cruzi [8] = test: Antitrypanosomal activity against Trypanosoma cruzi; assay type: functional, organism-based
Leishmania panamensis [9] = test: Antileishmanial activity against Leishmania panamensis axenic amastigotes; assay type: functional, organism-based
Leishmania major = test: Antileishmanial activity against Leishmania major promastigotes; assay type: functional, organism-based

| Structure (SMILES) | selectivity ratio [1] | pEC50 (Trypanosoma cruzi [2]; read-out: EC50) | CC50 at 72 h [3] [µM] | selectivity ratio [4] | pEC50 (Leishmania panamensis [5]) | other results |
| --- | --- | --- | --- | --- | --- | --- |
| O=C(/C=C/c1ccc(O)c(O)c1)OCCCCCCCCCOc1cc(Cl)ccc1Oc1ccc(Cl)cc1Cl | 0.09 | 4.38 | 3.62 | 0.12 | 4.52 |  |
| Oc1cc(Cl)ccc1Oc1ccc(Cl)cc1Cl [TRICLOSAN] | […] | 4.31 | […] | […] |  |  |
| COc1ccc(/C=C/C(=O)c2ccc(OCCCCOc3cc(Cl)ccc3Oc3ccc(Cl)cc3Cl)cc2)cc1OC |  |  |  |  |  | EC50 (Leishmania panamensis [6]): 10.2 µg/mL (≈ 16.2 µM); CC50 [7]: > 200 µg/mL |
| O=C(O)/C=C/c1ccc(O)c(O)c1 [CAFFEIC ACID] | > 7.07 | 3.80 | 1110 | > 1 | 2.96 |  |
| CC(C)CCOC(=O)/C=C/c1ccc(O)c(O)c1 |  |  |  |  |  | MIC (Trypanosoma brucei): 0.31 µg/mL (≈ 1.24 µM) |
| COc1ccc(/C=C/C(=O)c2ccc(OCCCCCOc3cc(Cl)ccc3Oc3ccc(Cl)cc3Cl)cc2)cc1OC |  |  |  |  |  | EC50 (Leishmania panamensis [6]): 13.5 µg/mL (≈ 21 µM); CC50 [7]: > 200 µg/mL |
| O=C(/C=C/c1ccc(O)c(O)c1)OCCCCCCCOc1cc(Cl)ccc1Oc1ccc(Cl)cc1Cl | 2.29 | 5.06 | 20 | 1.72 | 4.93 |  |
| COc1ccc(/C=C/C(=O)OCCCCCCCOc2cc(Cl)ccc2Oc2ccc(Cl)cc2Cl)cc1OC | > 12.3 | 4.56 | 337 | > 3.4 | 4.00 |  |
| COc1ccc(CCC(=O)OCCCOc2cc(Cl)ccc2Oc2ccc(Cl)cc2Cl)cc1OC | 7.49 | 4.48 | 250 | 6.2 | 4.40 |  |
| O=C(Cn1ccnc1[N+](=O)[O-])NCc1ccccc1 [BENZNIDAZOLE] | 17 |  |  |  |  | pEC50 (Trypanosoma cruzi [2]): 4.39 |
| O=C(/C=C/c1ccc(O)c(O)c1)OCCCCCCCCCCCCOc1cc(Cl)ccc1Oc1ccc(Cl)cc1Cl | 5.08 | 4.47 | 174 | 4.08 | 4.37 |  |
| O=C(/C=C/c1ccc(O)c(O)c1)OCCCCCOc1cc(Cl)ccc1Oc1ccc(Cl)cc1Cl | 0.28 | 4.53 | 8.18 | 0.53 | 4.82 |  |
| O=C(/C=C/c1ccc(O)c(O)c1)OCCCCCCCCOc1cc(Cl)ccc1Oc1ccc(Cl)cc1Cl | 2.19 | 4.74 | 40.2 | 3.11 | 4.89 |  |
| COc1ccc(/C=C/C(=O)OCCCCOc2cc(Cl)ccc2Oc2ccc(Cl)cc2Cl)cc1OC | 1.72 | 4.37 | 73.4 | 1.38 | 4.27 |  |
| C[C@@H]1[C@H](O)[C@@H](C)/C=C/C=C/C=C/C=C/C=C/C=C/C=C/[C@H](O[C@@H]2O[C@H](C)[C@@H](O)[C@H](N)[C@@H]2O)C[C@@H]2O[C@](O)(C[C@@H](O)C[C@@H](O)[C@H](O)CC[C@@H](O)C[C@@H](O)CC(=O)O[C@H]1C)C[C@H](O)[C@H]2C(=O)O [AMPHOTERICIN B] |  |  |  | 842 |  |  |
| O=C(/C=C/c1ccc(O)c(O)c1)O[C@@H]1[C@H](O)C[C@@](O)(C(=O)O)C[C@H]1OC(=O)/C=C/c1ccc(O)c(O)c1 |  |  |  |  |  | pIC50 (Trypanosoma cruzi [8]): 3.54 |
| COc1ccc(/C=C/C(=O)OCCCCCCCCCOc2cc(Cl)ccc2Oc2ccc(Cl)cc2Cl)cc1OC | 3.24 | 4.48 | 107 | 2.21 | 4.31 |  |
| COc1ccc(/C=C/C(=O)OCCCOc2cc(Cl)ccc2Oc2ccc(Cl)cc2Cl)cc1OC | < 10 | < 4.43 | > 372 | > 9.77 | 4.42 |  |
| COc1ccc(/C=C/C(=O)c2ccc(OCCCOc3cc(Cl)ccc3Oc3ccc(Cl)cc3Cl)cc2)cc1OC |  |  |  |  |  | EC50 (Leishmania panamensis [6]): 9.4 µg/mL (≈ 15.3 µM); CC50 [7]: > 200 µg/mL |
| CCCCCCCCOC(=O)/C=C/c1ccc(O)c(O)c1 |  |  |  |  |  | pEC50 (Leishmania panamensis [9]): 6.17 |
| O=C(/C=C/c1ccc(O)c(O)c1)OCCCOc1cc(Cl)ccc1Oc1ccc(Cl)cc1Cl | > 7.48 | 4.28 | > 392 | > 16.1 | 4.61 |  |
| O=C(/C=C/c1ccc(O)c(O)c1)OCCCCOc1cc(Cl)ccc1Oc1ccc(Cl)cc1Cl | 1.46 | 5.08 | 12 | 3.16 | 5.42 |  |
| CC1(C)C2CCC1(C)[C@H](OC(=O)/C=C/c1ccc(O)c(O)c1)C2 (some centres not stated) |  |  |  |  |  | pIC50 (Leishmania major): 4.31 |
